# Measurements taken from patent publication US10456465B2, “Compositions, kits, and methods for the diagnosis prognosis, monitoring, treatment and modulation of post-transplant lymphoproliferative disorders and hypoxia associated angiogenesis disorders using galectin-1” (Dana-Farber Cancer Institute, Inc., priority 2009, dated 2019).
# Key:
# [1] = test system: EBV-specific CD8+ T cells; experiment: rGal1-induced killing of EBV-specific CTLs; type: cell-based, human; conditions: rGal1 alone, 1.25, 2.5 or 5 μM; 4 h; 7AAD
# Procedure: After informed consent, 40-60 ml of peripheral blood from healthy donors was used to generate both EBV-transformed LCLs and EBV-specific CTLs (Straathof et al. (2005) Blood 105:1898-904). In brief, 5×10^6 peripheral blood mononuclear cells (PBMCs) were incubated with concentrated culture supernatant from the marmoset B-lymphoblastoid cell line, B95-8, in the presence of 1 μg/ml cyclosporin A (Sandoz, Vienna, Austria) to establish a LCL. Subsequently, PBMCs (2×10^6 per well of a 24-well plate) were stimulated with irradiated LCLs (at 4,000 rads) at an effector-stimulator (E/S) ratio of 40:1. After 10 days, viable cells were restimulated with irradiated LCLs (at 4:1 E/S ratio). CTLs were expanded by weekly stimulations with autologous irradiated LCLs (at 4:1 E/S ratio) in the presence of recombinant human interleukin-2 (rhIL-2, Proleukin; Chiron Emeryville, Calif.) at concentration of 40 U/ml. After 5 cycles of stimulation, CTLs were tested for EBV specificity and cryopreserved. […]
# CTLs were thawed in AIM-V media (Invitrogen) containing 10 U/ml of DNAse I (Roche Applied Science, Indianapolis, Ind.) and rested in culture overnight. […] After 4 hours, the viability of EBV-specific CD8^+ T cells was measured using 7AAD and APC-Cy7-labelled CD8 (BD Biosciences, San Jose, Calif.).
# Gal3 = target: T1, Gal3 (Homo sapiens, UniProt P17931); experiment: Binding of 488-Gal3 to HUVEC; conditions: 488-Gal3 20 μg/ml, mAb 0.5 μM
# T1 construct: made in house
# Procedure: For glycophenotyping, ECs were incubated with biotinylated L-PHA, LEL, SNA, MAL II, PNA and HPA (all from Vector). Recombinant Gal1 was purified as described in Ilarregui et al. (2009) Nat Immunol 10, 981-991. For binding assays, ECs were incubated for 1 h at 4° C. with dyLight 488-labeled galectins in the absence or presence of lactose, sucrose, anti-Gal1 or isotype control mAb or following transfection with GnT5, GCNT1 or scrambled siRNA. Cells were analyzed on a FACSAria (BD Biosciences). For segregation, ECs were treated with Gal1 for 1 h, fixed and incubated for 1 h with anti-human VEGFR2 antibody (55B11; Cell Signaling) as described in Ilarregui et al. (2009) Nat Immunol 10, 981-991. Cells were analyzed on a Nikon laser confocal microscope (Eclipse E800).
# DyLight 488-conjugated Gal1 (488-Gal1) was obtained using DyLight labeling kit (Thermo Scientific). Inhibitors of Jak2-STAT3 (AG490; 5 μM), Jnk-SAP (SP600125; 20 μM), p38 (SB202190; 10 μM), HIF-1α (3 μM) and O-glycosylation (benzyl-α-Ga1NAc; 2 mM) were from Calbiochem. Inhibitors of Erk1/2 (U0126; 5 μM), PI(3)K-Akt (Ly294002; 2 μM) and NF-κB (BAY 11-7082; 1 μM), ROS (N-acetyl-cysteine; NAC), N-glycosylation (swainsonine; 3 μM), lactose or sucrose (30 mM) were from Sigma. PNGase F (25 U/μg protein) was from New England Biolabs. […]
# T1 sequence (P17931 whole entry, species assumed): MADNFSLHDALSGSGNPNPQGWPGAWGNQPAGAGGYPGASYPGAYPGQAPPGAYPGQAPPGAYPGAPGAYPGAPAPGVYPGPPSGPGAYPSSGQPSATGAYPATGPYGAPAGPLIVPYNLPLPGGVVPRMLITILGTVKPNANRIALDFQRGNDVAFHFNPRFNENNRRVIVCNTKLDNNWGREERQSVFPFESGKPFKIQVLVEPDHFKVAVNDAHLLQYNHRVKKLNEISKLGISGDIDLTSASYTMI
Molecule,apoptosis of EBV-specific CD8+ T cells [1],effect on binding of Gal3 to the EC surface (Gal3)
rGal1: recombinant human galectin-1,induced massive apoptosis,–
"anti-Gal1 monoclonal antibody 8F4F8G7 (antibody, V domains shown, Murine hybridoma mAb (deposit PTA-10535), lambda light chain; also called 14-19 8F4-F8-G7; clone 8F4.8F.67) VH: EVQLQQSVAEFVRPGASVRLSCTASGFNIKNTYIHWVRQRPEQGLEWIGKIDPANGNTKYVPEFQGKATMTADTSSNTVYLHLSSLTSEDTAIYYCVDGYYGWYFAVWGTGTTVTVSS VL: QAVVTQESALTTSPGETVTLTCRSSTGAVTTSNYANWVQEKPDHLFTGLIGATNNRAPGVPARFSGSLIGDKAVLTITGAQTEDEAIYFCALWYRNHFIFGSGTKVTVL",–,did not interfere
